Columns and labels:
[1] = tested on: alloantigen-specific T cells; assay: Inhibitory effect on alloantigen-specific T cells in vivo (donor T cells in spleen of irradiated BDF1 mice); design: species or system mouse; conditions: for number of alloantigen-specific T cells in the spleen: compared to vehicle, concentration-dependent
Procedure: Lymph nodes and spleens were aseptically collected from normal C57BL/6-Ly5.1 mice (8-12 week old, female, 20±2 g), and T cells were isolated in the same manner as described in Experimental Example 2, and were then re-suspended in PBS at a concentration of 1×10^8 cells/mL. Normal BDF1 mice (10-12 week old, female, 20-23 g) were irradiated with 950 rad of γ radiation, and then 100 μL of the above-prepared T cells of C57BL/6-Ly5.1 mice were injected into the tail vein of the BDF1 mice. Compound 229 was completely dissolved in a Cremophor EL (Sigma)/ethanol mixture (1:1, v/v) in an amount corresponding to 15% (v/v) of the administration volume for intraperitoneal administration and in an amount corresponding to 7.5% (v/v) for oral administration, and the compound solution was diluted in PBS. The dilution was administered intraperitoneally (200 μL/mouse) or orally (500 μL/mouse) every day for 5 days from the day of the cell injection. A vehicle control group was administered with a Cremophor EL-ethanol-PBS mixture in the same ratio and volume as those of the test group. At 6 days after the cell injection, the mice were sacrificed, the spleens were collected from the mice, and erythrocyte-free spleen cells were made in the same manner as described in Experimental Example 2. The spleen cells were stained with trypan blue, and the number of viable cells per organ of each animal was counted. Then, the spleen cells were put into 5 mL FACS tubes and washed with 1 mL of FACS buffer. The cells were re-suspended in 0.1 mL of FACS buffer, and then treated with […] of mouse immunoglobulin G in order to prevent the non-specific binding of antibody, followed by incubation at 4° C. for 15 minutes. […] The stained cells were washed twice with 1 mL of FACS buffer, re-suspended in 0.3 mL of FACS buffer and analyzed by a flow cytometer. The number of donor T cells in the spleen was determined by measuring the ratio (%) of a donor T cell fraction (Ly5.1^+ cells) relative to viable cells per spleen.

KMS12BM = assay: Apoptosis of lymphoid malignancy cell lines: KMS12BM; assay type: cell-based; conditions: Homo sapiens, KMS-12-BM, Multiple myeloma, 24 hours, read-out: Administration Dose (mean ± SD, μmol/L) Lethal Dose 50 (Apoptosis)
Procedure: Each of the acute T cell leukemia cell lines Jurkat, Molt4 and CCRF-CEM, the acute B cell leukemia cell line Raji and the […] cell lines KMS11, KMS12BM, KMS26, KMS28BM, and IM9 was re-suspended in 10% FBS-containing RPMI medium at a concentration of 1.5×10^5 cells/mL, and 200 μL of each of the cell suspensions was cultured in a flat bottom 96-well plate (Costar). The acute NK cell lymphoma cell line NK-92MI was re-suspended in α-MEM medium (supplemented with 20% FBS, 1×MEM vitamine solution, 50 μM 2-mercaptoethanol and 1× penicillin/streptomycin) at a concentration of 1.5×10^5 cells/mL, and 200 μL of the cell suspension was cultured in a flat bottom 96-well plate. The cells in each well was treated with 10 μL of each of 0.1, 0.25, 0.5, 0.75 and 1 μM of the compound diluted with RPMI medium, followed by that the cells were incubated in a 5% CO2 incubator at 37° C. for 24 hours. […]
The cells were collected, and then the apoptosis thereof was analyzed by a flow cytometer after staining with Annexin V-7-AAD. The incubated cells were collected, placed in a 5-mL FACS tube (BD Falcon) and washed with 1 mL of fluorescence activated cell sorting (FACS) buffer (1%. FBS and 0.1% sodium azaide in PBS). […] The stained cells were suspended in 0.3 mL of FACS buffer, and then analyzed by a flow cytometer. […]

Structure (SMILES): Cc1cc(C)c(OCC(=O)N/N=C/c2ccc3cc[nH]c3c2)c(C2CCOC2)c1 (stereo not shown) [Compound 229, (E)-N′-((1H-indol-6-yl)methylene)-2-(2,4-dimethyl-6-(tetrahydrofuran-3-yl)phenoxy)acetohydrazide]
- number of alloantigen-specific T cells in the spleen ([1]; administered intraperitoneally every day for 5 days): significantly decreased
- number of alloantigen-specific T cells in the spleen ([1]; administered orally every day for 5 days): significantly decreased
- proliferation of T cells that responded to the alloantigen in vivo ([1]; dose of 50 mg/kg): completely inhibited
- EC50 (KMS12BM): 0.94 ± 0.09 µmol/L
